Reference: US20050065118A1, “Organosulfur inhibitors of tyrosine phosphatases” (priority 2001, published 2005)
“And” between values parts separate entries of the source, which are not always exact repeats. Identical values can stand only once.

Legend:
TC-PTP = target: T1, TC-PTP (Homo sapiens, UniProt P17706); experiment: TC-PTP inhibition, pNPP tyrosine phosphatase assay; type: biochemical; details: two values in a cell = two determinations
T1 construct: purchased NEB
T1 sequence (P17706 1-317 limits assumed): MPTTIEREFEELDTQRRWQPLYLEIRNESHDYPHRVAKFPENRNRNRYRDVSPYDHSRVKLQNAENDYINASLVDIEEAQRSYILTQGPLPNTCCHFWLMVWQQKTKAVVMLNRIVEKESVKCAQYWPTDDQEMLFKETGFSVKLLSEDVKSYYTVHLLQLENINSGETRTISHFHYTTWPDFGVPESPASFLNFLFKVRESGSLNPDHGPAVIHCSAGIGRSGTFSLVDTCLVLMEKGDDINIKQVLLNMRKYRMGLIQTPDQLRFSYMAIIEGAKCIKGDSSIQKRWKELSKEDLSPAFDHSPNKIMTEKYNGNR
Procedure: (§1) Alternatively, a pNPP assay can be used to screen compounds for tyrosine phosphatase inhibitory activity as follows: A 5× stock of pNPP (p-nitrophenol phosphate) substrate is prepared as 50 mM pNPP in assay buffer prepared as described above. Various tyrosine phosphatase solutions can be prepared as follows: • PTP-1B (SBI purified, 1 mg/mL) as a 1:250 dilution (to a final concentration of 4 μg/mL); • TC-PTP (NEB, 1000 units in 100 μL) as a 1:50 dilution (to a final concentration of 2U/10 μL (4 μg/mL)); • CD45 (Calbiochem, 20 μg, 400 units in 100 μL) as a 1:50 dilution (to a final concentration of 0.8U/10 μL (4 μg/mL)); • LAR (NEB, 1000 units in 200 μL) as a 1:75 dilution (to a final concentration of 0.7U/10 μL (4 μg/mL)); and • PTP-β (UBI, #14-350, 10,000 units, 40 μg/571 μL) as a 1:17.5 dilution (to a final concentration of 10U/10 μL (4 μg/mL));
(§2) The compound to be tested is prepared as 1:16.7 and 1:50 dilutions from stock in a total volume of […] to give final concentrations of 626 and 200 μM. The reaction mixtures are prepared in a 96-well microtiter plate (on ice) as 55 μL assay buffer, 5 μL of the diluted compound (to a final concentration of 31.3 and 10 μM), 20 μL of the pNPP substrate solution (to a final concentration of 10 mM) and 20 μL PTease in assay buffer. The reactants are mixed well, the plate placed in a water bath at 30° C. and incubated for 10 minutes. The reaction is then terminated by adding 100 μL of 2M K2CO3 per well, and the absorbance is measured at 405 nm by conventional means.

PTP-β = target: T2, PTP-β (Homo sapiens, UniProt P23467); experiment: PTP-β inhibition, pNPP tyrosine phosphatase assay; type: biochemical
T2 construct: purchased UBI #14-350
T2 sequence (P23467 1643-1997 limits assumed): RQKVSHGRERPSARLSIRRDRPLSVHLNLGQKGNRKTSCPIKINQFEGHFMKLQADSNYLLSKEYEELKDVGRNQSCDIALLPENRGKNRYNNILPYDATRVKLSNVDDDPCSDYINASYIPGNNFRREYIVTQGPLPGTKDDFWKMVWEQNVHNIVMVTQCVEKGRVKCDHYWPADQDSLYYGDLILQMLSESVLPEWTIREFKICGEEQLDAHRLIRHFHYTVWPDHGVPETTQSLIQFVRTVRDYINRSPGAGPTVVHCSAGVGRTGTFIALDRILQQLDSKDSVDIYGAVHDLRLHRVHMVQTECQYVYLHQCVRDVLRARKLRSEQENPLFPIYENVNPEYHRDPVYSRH
Procedure: as §1, §2

PTP-1B = target: T3, PTP-1B (Homo sapiens, UniProt P18031); experiment: PTP-1B inhibition, Malachite Green assay with pIRP substrate; type: biochemical
T3 sequence (P18031 1-435): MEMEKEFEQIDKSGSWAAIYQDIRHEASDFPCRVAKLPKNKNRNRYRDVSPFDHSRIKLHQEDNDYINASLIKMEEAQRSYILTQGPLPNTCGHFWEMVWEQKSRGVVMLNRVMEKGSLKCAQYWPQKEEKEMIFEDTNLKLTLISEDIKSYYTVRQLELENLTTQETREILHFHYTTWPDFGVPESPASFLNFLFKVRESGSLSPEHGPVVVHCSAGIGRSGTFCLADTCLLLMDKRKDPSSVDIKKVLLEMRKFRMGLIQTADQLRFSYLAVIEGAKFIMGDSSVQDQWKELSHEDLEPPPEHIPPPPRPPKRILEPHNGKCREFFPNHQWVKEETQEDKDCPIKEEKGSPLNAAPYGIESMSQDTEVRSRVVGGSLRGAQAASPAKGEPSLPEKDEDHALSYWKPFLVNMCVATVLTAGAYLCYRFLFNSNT
Procedure: The compounds of the present invention are evaluated for biological activity as inhibitors of PTP-1B using, for example, a Malachite Green assay with pIRP as a substrate. The pIRP substrate includes a phosphotyrosine residue, and PTP-1B cleaves the phosphate group from the tyrosine, yielding the peptide and phosphate. The rate of the enzymatic reaction is determined by measuring the phosphate released during the reaction.
The reactants for the assay include 20 mM Tris-HCl, pH 7.4, 2 mM EDTA (ethylaminediamine tetraacetic acid) and 2 mM DTT (dithiothreitol) as the assay buffer, and 1 mM pIRP in assay buffer (1 mg in 0.59 mL buffer) as the substrate stock. The Malachite Green solution is prepared by adding 30 μL of 1% Tween 20 to 1 mL of Malachite Green Solution A. The stock of each compound to be tested is made up as 10 mM in DMSO (dimethylsulfoxide).
The compound to be tested is prepared as 1:5, 1:15.8, 1:50 and 1:158 dilutions from stock in a total volume of […]. The reaction mixtures are prepared in a 96-well microtiter plate as 27.5 μL assay buffer, […] of the diluted compound (to a final concentration of 100, 32, 10 and 3.2 μM), 10 μL of the pIRP substrate solution (to a final concentration of 200 μM) and 10 μL PTPase in assay buffer. The reactants are mixed well, the plate placed in a water bath at 30° C. and incubated for 3 minutes. The reaction is then terminated by adding 100 μL of Malachite Green solution per well, color is allowed to develop for 15 minutes, and the A650 is measured by conventional means.
Unless otherwise indicated, this assay was used to determine activity for the selected compounds whose activity is recorded in the Table.

CD-45 = target: T4, CD-45 (Homo sapiens, UniProt P08575); experiment: CD45 inhibition, pNPP tyrosine phosphatase assay; type: biochemical
T4 construct: purchased Calbiochem
T4 sequence (P08575 609-1306 limits assumed): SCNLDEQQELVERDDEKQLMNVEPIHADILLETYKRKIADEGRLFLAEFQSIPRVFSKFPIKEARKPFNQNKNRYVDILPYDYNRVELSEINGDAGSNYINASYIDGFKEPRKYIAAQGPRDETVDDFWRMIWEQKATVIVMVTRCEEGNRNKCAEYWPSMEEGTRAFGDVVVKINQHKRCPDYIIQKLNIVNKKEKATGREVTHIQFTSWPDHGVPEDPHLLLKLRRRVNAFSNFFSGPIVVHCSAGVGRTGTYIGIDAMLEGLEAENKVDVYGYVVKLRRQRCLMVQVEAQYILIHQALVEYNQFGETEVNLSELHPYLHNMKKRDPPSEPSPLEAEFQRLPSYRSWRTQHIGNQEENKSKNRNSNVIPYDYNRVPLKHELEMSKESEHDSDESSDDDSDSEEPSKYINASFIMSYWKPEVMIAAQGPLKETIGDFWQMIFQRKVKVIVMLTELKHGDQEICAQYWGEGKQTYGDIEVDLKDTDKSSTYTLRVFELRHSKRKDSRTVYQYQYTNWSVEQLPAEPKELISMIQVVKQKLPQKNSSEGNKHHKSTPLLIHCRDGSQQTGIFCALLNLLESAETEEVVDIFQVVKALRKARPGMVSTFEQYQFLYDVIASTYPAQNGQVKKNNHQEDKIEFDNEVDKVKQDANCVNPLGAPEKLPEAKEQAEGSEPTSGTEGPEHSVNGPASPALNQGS
Procedure: as §1, §2

| Compound | IC50 (TC-PTP) | melting point | IC50 (PTP-β) [µM] | IC50 (PTP-1B) [µM] | IC50 (CD-45) [µM] |
| --- | --- | --- | --- | --- | --- |
| O=C(O)c1cccc(Oc2cccc(-c3nnc(Nc4ccc(Cl)c(Cl)c4)s3)c2)c1 [Example 7, (3-(3-{5[(3,4-dichlorophenyl)amino]-1,3,4-thiadiazol-2-yl}phenoxy)benzoic acid)] | 15 µM | 258 to 259 °C | 31 | 12 | 17 |
| C/C(=N\OCC(=O)O)c1cccc(Nc2nnc(-c3cccc(Oc4cccc(C(F)(F)F)c4)c3)s2)c1 [Compound 190, [1-(3-{5-[3-(3-Trifluoromethyl-phenoxy)-phenyl]-[1,3,4]thiadiazol-2-ylamino}-phenyl)-ethylideneaminooxy]acetic acid] | – | 220 °C (dec.) | – | 5 | – |
| O=C(O)C(=O)Nc1ccc(CN(c2ccc(Cl)c(Cl)c2)c2nnc(-c3cccc(Oc4cccc(C(F)(F)F)c4)c3)s2)cc1 [Example 169] | – | 172 to 174 °C | – | 1 | – |
| O=[N+]([O-])c1cccc(-c2nnc(Nc3cccc(Br)c3)s2)c1 [Example 80, (3-bromophenyl)[5-(3-nitrophenyl)(1,3,4-thiadiazol-2-yl)]amine] | 14 µM and 8 µM | – | > 100 | 7 | 80 |
| O=C(O)CCCn1nnnc1-c1cccc(Oc2cccc(-c3nnc(Nc4ccc(Cl)c(Cl)c4)s3)c2)c1 [Example 171] | – | 137 to 142 °C (dec.) | – | 2 | – |
| CCOc1cccc(-c2nnc(Nc3ccc(Br)c(Cl)c3)s2)c1 [Example 66, (4-bromo-3-chlorophenyl)[5-(3-ethoxyphenyl)(1,3,4-thiadiazol-2-yl)]amine] | 20 µM | 204 to 205 °C | > 100 | 7 | 25 |
| O=C(O)c1ccc(Cn2nc(-c3cccc(Oc4cccc(C(F)(F)F)c4)c3)sc2=Nc2ccc(Cl)c(Cl)c2)cc1 [Compound 187, 4-{2-(3,4-Dichloro-phenylimino)-5-[3{3-trifluoromethyl-phenoxy)-phenyl]-[1,3,4]thiadiaziol-3-ylmethyl}-benzoic acid] | 1 µM | – | 5 | 1 | 5 |
| O=C(O)c1ccc(N/N=C/c2cccc(Oc3cccc(-c4nnc(Nc5ccc(Cl)c(Cl)c5)s4)c3)c2)cc1 [Example 172] | 1.6 µM | 259 to 262 °C | 30 | 0.8 | 14 |
| Clc1ccc(Nc2nnc(-c3cccc(Oc4cccc(-c5nnn[nH]5)c4)c3)s2)cc1Cl [Example 14, {5-[3-(3-(1H-1,2,3,4-tetraazol-5-yl)phenoxy)phenyl](1,3,4-thiadiazol-2-yl)}(3,4-dichlorophenyl)amine] | 12 µM | – | 24 | 5 | 10 |
| COc1cccc(-c2nn3cc(-c4ccc(-c5ccccc5)cc4)nc3s2)c1 [Example 16, (3-methoxy-1-(6-(4-phenylphenyl)imidazolo(2,1-b)1,3,4-thiadiazolin-2-yl)benzene)] | – | – | > 100 | 12 | 30 |
| Clc1cc(Nc2nnc(-c3cccc(Oc4ccccc4)c3)s2)ccc1Br [Example 135] | 20 µM and 12 µM | – | > 100 | 6 | 20 |
